Test results as given in patent US5489613A, “Carbacyclin derivatives, process for their preparation and compositions containing them” (priority 1983, dated 1996).
Converted amounts (≈) assume the structure as drawn.

Key:
Type in all cases: cell-based
[1] = tested on: platelet aggregation (platelet-rich plasma); test: Inhibition of platelet aggregation (ADP-induced), Born's turbidimetric method, human blood; settings: 2 min, read-out: Concentration (ng/ml) for 50% inhibition, human blood
Experimental: (§1) Platelet aggregation was determined by the following means: 0.05 ml of a test liquid (containing, in various concentrations, the compound whose inhibitory effect was to be tested) was added to 1 ml of this platelet-rich plasma; two minutes after the addition, 0.2 ml of a liquid containing adenosine diphosphate at a concentration of 5 μM was added; the increase in light transmission at 600 nm was determined by means of a platelet aggregometer manufactured by Bryston Co. Limited.

[2] = tested on: platelet aggregation (platelet-rich plasma); test: Inhibition of platelet aggregation (ADP-induced), Born's turbidimetric method, rabbit blood; settings: Oryctolagus cuniculus, 2 min, read-out: Concentration (ng/ml) for 50% inhibition, rabbit blood
Experimental: as §1

blood platelets = test: Inhibition of aggregation of blood platelets (thrombocyte agglutination), stated in words
[3] = human platelet-rich plasma, adenosine diphosphate 5 μM, 2 min after addition of test liquid, 600 nm
[4] = rabbit platelet-rich plasma, adenosine diphosphate 5 μM, 2 min after addition of test liquid, 600 nm

IC50 [1, 3] [ng/mL]	IC50 [2, 4] [ng/mL]	Compound	ability to inhibit aggregation of blood platelets (blood platelets)	IC50 ([1]; Homo sapiens, Platelet) [ng/mL]	IC50 ([2]; Platelet) [ng/mL]
3.6 (≈ 10.3 nM)	5.9 (≈ 16.8 nM)	CCCCC[C@H](O)/C=C/[C@@H]1[C@H]2CC(CCCCC(=O)O)=C[C@H]2C[C@H]1O [Compound C, reference compound]	has the ability to inhibit aggregation blood platelets	–	–
1.8 (≈ 4.78 nM)	1.1 (≈ 2.92 nM)	C=CCCCC(C)[C@H](O)/C=C/[C@@H]1[C@H]2CC(CCCCC(=O)O)=C[C@H]2C[C@H]1O (stereo partly drawn) [Compound 60, 3-(4-Carboxybutyl)-6β-(3α-hydroxy-4-methylnona-1,8-dienyl)-7α-hydroxy-cis-bicyclo[3,3,0]oct-2-ene]	–	–	–
9.3 (≈ 26.2 nM)	36 (≈ 102 nM)	CCCCC[C@H](O)/C=C/[C@H]1[C@H](O)CC(=O)[C@@H]1CCCCCCC(=O)O [Compound A, PGE1, reference compound]	–	–	–

Further lines, the compound ahead of its results:

Compound	IC50 [1, 3] [ng/mL]	IC50 [2, 4] [ng/mL]	ability to inhibit aggregation of blood platelets (blood platelets)	IC50 ([1]; Homo sapiens, Platelet) [ng/mL]	IC50 ([2]; Platelet) [ng/mL]
O=C(O)CCCCC1=C[C@H]2C[C@@H](O)[C@H](/C=C/[C@@H](O)CC3CCCC3)[C@H]2C1 [Compound 100, 3-(4-Carboxybutyl)-6β-(3α-hydroxy-4-cyclopentylbut-1-enyl)-7α-hydroxy-cis-bicyclo[3,3,0]oct-2-ene]	1.1 (≈ 3.03 nM)	–	–	–	–
O=C(O)CCCCC1=C[C@H]2C[C@@H](O)[C@H](/C=C/[C@@H](O)C3CCCC3)[C@H]2C1 [Compound 90, 3-(4-Carboxybutyl)-6β-(3α-hydroxy-3-cyclopentylprop-1-enyl)-7α-hydroxy-cis-bicyclo[3,3,0]oct-2-ene]	0.5 (≈ 1.43 nM)	3.7 (≈ 10.6 nM)	–	–	–
CCCCC[C@H](O)/C=C/[C@@H]1[C@H]2C/C(=C/CCCC(=O)O)C[C@H]2C[C@H]1O [Compound B, carbacyclin]	–	–	–	13.3 (≈ 37.9 nM)	36 (≈ 103 nM)
CC#CCC(C)[C@H](O)/C=C/[C@@H]1[C@H]2CC(CCCCC(=O)O)=C[C@H]2C[C@H]1O (stereo partly drawn) [Compound 85, 3-(4-Carboxybutyl)-6β-(3α-hydroxy-4-methyloct-1-en-6-ynyl)-7α-hydroxy-cis-bicyclo[3,3,0]oct-2-ene]	0.4 (≈ 1.11 nM)	3.6 (≈ 9.99 nM)	–	–	–
O=C(O)CCCCC1=C[C@H]2C[C@@H](O)[C@H](/C=C/[C@@H](O)C3CCCCC3)[C@H]2C1 [Compound 98, 3-(4-Carboxybutyl)-6β-(3α-hydroxy-3-cyclohexylprop-1-enyl)-7α-hydroxy-cis-bicyclo[3,3,0]oct-2-ene]	0.9 (≈ 2.48 nM)	3.3 (≈ 9.1 nM)	–	–	–
